Consider three compounds from patent US20080009435A1, “Synthetic methods for aplidine and new antitumoral derivatives, methods of making and using them” (Pharma Mar, S.A., a Spain corporation, priority 2000, published 2008).

Molecules are shown by their SMILES. pIC50: −log10 of the molar value. Where two headings read alike, the source gives them in different places. *1 amine or outer side, *2 acyl side, *3 side chain or, on linkers, in order; H or OH if unused. Where a SMILES comes first, the peptide text is derived from it. Bridges are numbered along the chain shown (N, C = ends). [ ]: non-standard residue; d: D form. The star is where a group is joined. X1 = CC[C@H](C)[C@@H](N[*:1])[C@@H](O)CC(=O)O[C@H](C(=O)[C@H](C)C(=O)[*:2])C(C)C; X2 = CC[C@H](C)[C@@H](N[*:1])[C@@H](O)CC(=O)[*:2]; NMeY = CN[C@@H](Cc1ccc(O)cc1)C(=O)O; dNMeL = CN[C@H](CC(C)C)C(=O)O; Hiv = CC(C)[C@H](O)C(=O)O; Pyruvoyl = CC(=O)C(=O)*

Series [1] concerns Molt 3 (ALL, Acute lymphobalstic). As to the kind of experiment: IC50 Aplidine Family panel (MTT/MTS). To be noted: read-out: IC50 (Molar) ALL (Acute lymphobalstic) Molt 3. Type of series: cell-based.
A further series has as its system Mel-28 (Melanoma). As to the kind of experiment: IC50 Aplidine Family panel (MTS). Type of series: cell-based. To be noted: Homo sapiens, SK-MEL-28; MTS (new); read-out: IC50 (Molar) Melanoma Mel-28.
For the next series, the system named is 5637 (Bladder). As to the kind of experiment: IC50 Aplidine Family panel (MTT/MTS). Type of series: cell-based. Conditions: read-out: IC50 (Molar) Bladder 5637.
The subject of series [2] is solid tumors like colon, chondrosarcoma and osteosarcoma. As to the kind of experiment: MTS assay, specificity against solid tumors. Type of series: cell-based. Conditions: with respect to didemnin B (III). Background: Tetrazolium assays rely on reduction of a dye to a coloured formazan, in cell work by metabolically active cells.
In series [3] the test system is K562 (CML, Chronic myelogenous). As to the kind of experiment: IC50 Aplidine Family panel (MTT/MTS). Conditions: read-out: IC50 (Molar) CML (Chronic myelogenous) K562. Type of series: cell-based.
The next series concerns P388 Murine lymphoma. As to the kind of experiment: Cytotoxicity IC50 (after Berjeron et al). Conditions: Mus musculus, P388, read-out: Cytotoxicity of [aa3]-aplidine Congeners IC50 (Molar) P388.
The subject of a further series is FADU (Pharynx). As to the kind of experiment: IC50 Aplidine Family panel (MTT/MTS). Type of series: cell-based. Conditions: read-out: IC50 (Molar) Pharynx FADU.
In the next series the test system is CHSA (Chondrosarcoma). As to the kind of experiment: IC50 Aplidine Family panel (MTS). Conditions: MTS (new); read-out: IC50 (Molar) Chondrosarcoma CHSA. It counts as cell-based.
The test system of a further series is MEL-28 human melanoma. As to the kind of experiment: Cytotoxicity IC50 (after Berjeron et al). To be noted: Homo sapiens, SK-MEL-28, read-out: Cytotoxicity of [aa3]-aplidine Congeners IC50 (Molar) MEL28.
Series [4] deals with HT-29 human colon carcinoma. As to the kind of experiment: Cytotoxicity IC50 (after Berjeron et al). Conditions: Homo sapiens, HT-29, read-out: Cytotoxicity of [aa3]-aplidine Congeners IC50 (Molar) HT29.
Source text: (§1) Methodology: after Berjeron et al, Biochem and Bioph Res. Comm., 1984, 121, 3, 848-854.
(§2) P388=Murine lymphoma. A549=human lung carcinoma. HT-29=human colon carcinoma. MEL-28=human melanoma.
(§3) A549=human lung carcinoma. HT-29=human colon carcinoma. MEL-28=human melanoma.
The next series has as its system Hs746t (Gastric). As to the kind of experiment: IC50 Aplidine Family panel (MTT/MTS). It counts as cell-based. Conditions: read-out: IC50 (Molar) Gastric Hs746t.
The next series relates to LNCAP (Prostate). As to the kind of experiment: IC50 Aplidine Family panel (MTS). Type of series: cell-based. To be noted: Homo sapiens, MTS (new), read-out: IC50 (Molar) Prostate LNCAP.
In series [5] the test system is MC116 (Lymphoma, undifferentiated). As to the kind of experiment: IC50 Aplidine Family panel (MTT/MTS). To be noted: read-out: IC50 (Molar) Lymphoma (undifferentiated) MC116. Type of series: cell-based.
The test system of another series is HT-29 (Colon). As to the kind of experiment: IC50 Aplidine Family panel (MTT/MTS). It counts as cell-based, human. Conditions: read-out: IC50 (Molar) Colon HT-29.
The next series has as its system OSA-FH (Osteosarcoma). As to the kind of experiment: IC50 Aplidine Family panel (MTS). Conditions: MTS (new); read-out: IC50 (Molar) Osteosarcoma OSA-FH. It counts as cell-based.
The next series deals with SK-HEP-1 (Liver). As to the kind of experiment: IC50 Aplidine Family panel (MTT/MTS). Type of series: cell-based. Conditions: read-out: IC50 (Molar) Liver SK-HEP-1.
Series [6] deals with A549 human lung carcinoma. As to the kind of experiment: Cytotoxicity IC50 (after Berjeron et al). Conditions: Homo sapiens, A549, read-out: Cytotoxicity of [aa3]-aplidine Congeners IC50 (Molar) A549.
Source text: as §1, §2, §3
The test system of another series is PC-3 (Prostate). As to the kind of experiment: IC50 Aplidine Family panel (MTT). Conditions: read-out: IC50 (Molar) Prostate PC-3. Type of series: cell-based.
The subject of a further series is CCRF-SB (ALL, B-cell). As to the kind of experiment: IC50 Aplidine Family panel (MTT). It counts as cell-based. To be noted: read-out: IC50 (Molar) ALL (B-cell) CCRF-SB.
Another series relates to H9 (Lymphoma, T cell). As to the kind of experiment: IC50 Aplidine Family panel (MTT/MTS). Type of series: cell-based. To be noted: MTT, read-out: IC50 (Molar) Lymphoma (T cell) H9.
A further series relates to SW 694 (Fibrosarcoma). As to the kind of experiment: IC50 Aplidine Family panel (MTT/MTS). It counts as cell-based. To be noted: MTT; read-out: IC50 (Molar) Fibrosarcoma SW 694.
Series [7] has as its system Hut 78 (Lymphoma, Cutaneous T cell). As to the kind of experiment: IC50 Aplidine Family panel (MTT). Type of series: cell-based.
Another series concerns MX-1 (Breast). As to the kind of experiment: IC50 Aplidine Family panel (MTT/MTS). It counts as cell-based. Conditions: MTT; read-out: IC50 (Molar) Breast MX-1.
The conditions of series [8]: doses near those required for therapeutic applications; cited from earlier work.
Series [9] has as its system P3HR1 (Lymphoma, Burkitts ascites). As to the kind of experiment: IC50 Aplidine Family panel (MTT). Type of series: cell-based.
Another series deals with SK-OV-3 (Ovary). As to the kind of experiment: IC50 Aplidine Family panel (MTT). Type of series: cell-based.
Another series concerns A549 (NSCL). As to the kind of experiment: IC50 Aplidine Family panel (MTT/MTS). It counts as cell-based, human. To be noted: MTT, read-out: IC50 (Molar) NSCL A549.
For a further series, the system named is PANC-1 (Pancreas). As to the kind of experiment: IC50 Aplidine Family panel (MTT). Type of series: cell-based.
Series [10] relates to HL-60 (ALL, Promyelocytic leukemia). As to the kind of experiment: IC50 Aplidine Family panel (MTT/MTS). It counts as cell-based. To be noted: MTT, read-out: IC50 (Molar) ALL (Promyelocytic leukemia) HL-60.
For another series, the system named is 786-O (Renal). As to the kind of experiment: IC50 Aplidine Family panel (MTT). Type of series: cell-based.
Series [11] deals with U-937 (Lymphoma, Histiocytic). As to the kind of experiment: IC50 Aplidine Family panel (MTT). Type of series: cell-based.
The subject of series [12] is ARH-77 (Leukemia, Plasma cell). As to the kind of experiment: IC50 Aplidine Family panel (MTT). Type of series: cell-based. To be noted: Homo sapiens, read-out: IC50 (Molar) Leukemia (Plasma cell) ARH-77.

In general, pIC50 refers to −log10 of the IC50, conventionally taken in molar units.

Source text for MEL-28 human melanoma: as §1, §2, §3
Source text for P388 Murine lymphoma: as §1, §2, §3

On to `CC[C@H](C)[C@H]1NC(=O)[C@@H](NC(=O)[C@@H](CC(C)C)N(C)C(=O)[C@@H]2CCCN2C(=O)C(C)=O)[C@@H](C)OC(=O)[C@H](Cc2ccc(OC)cc2)N(C)C(=O)[C@@H]2CCCN2C(=O)[C@H](CC(C)C)NC(=O)[C@H](C(C)C)OC(=O)C[C@@H]1O` [SHPL1, [Hiv]^3-Aplidine] (Pyruvoyl-P[dNMeL]T[X2][Hiv]LP[NMeY](Me); ester 3-C), for which the pIC50 in series [1] (Homo sapiens, MOLT-3, MTS (new)) was 7.75; in the series with Mel-28 (Melanoma) it was 6.31; with 5637 (Bladder) (MTS (new)) it was 7.04; in series [3] (Homo sapiens, K562, MTS (new)) it was 6.28; with P388 Murine lymphoma, 9.32; with FADU (Pharynx) (Homo sapiens, FaDu, MTS (new)), 7.43. In addition, the pIC50 with CHSA (Chondrosarcoma) was 8.46; with MEL-28 human melanoma it was 9.32; in series [4], 9.32; in the series on Hs746t (Gastric) (Homo sapiens, Hs746T, MTS (new)), 7.15; in the series on LNCAP (Prostate), 7.84; in [5] (Homo sapiens, MC116, MTS (new)), 6.42. Moreover, the pIC50 in the series on HT-29 (Colon) (Homo sapiens, HT-29, MTS (new)) is 7.99; in the series with OSA-FH (Osteosarcoma) it was 8.23; in the series on SK-HEP-1 (Liver) (Homo sapiens, SK-HEP1, MTS (new)), 6.58; in series [6], 9.32. Besides, the “specificity against solid tumors in the MTS assay” value in [2] is “more specific against solid tumors like colon, chondrosarcoma and osteosarcoma”.

In the case of `CC[C@H](C)[C@H]1NC(=O)[C@@H](NC(=O)[C@@H](CC(C)C)N(C)C(=O)[C@@H]2CCCN2C(=O)C(C)O)[C@@H](C)OC(=O)[C@H](Cc2ccc(OC)cc2)N(C)C(=O)[C@@H]2CCCN2C(=O)[C@H](CC(C)C)NC(=O)[C@@H](C)C(=O)[C@H](C(C)C)OC(=O)C[C@@H]1O` (stereo partly shown) [Didemnin B], the negative logarithm of the IC50 (pIC50) in series [1] (MTT) was 6.26; in the series on 5637 (Bladder) (MTT), 7.60; in the series with PC-3 (Prostate), 7.05; with CCRF-SB (ALL, B-cell) it was 6.18; in series [3] (MTT) it was 5.48; with H9 (Lymphoma, T cell), 6.67. Also, the pIC50 with FADU (Pharynx) (MTT) was 7.01; in the series with SW 694 (Fibrosarcoma), 5.48; in series [7] (read-out: IC50 (Molar) Lymphoma (Cutaneous T cell) Hut 78), 7.45; in the series on MX-1 (Breast), 5.81; in the series on Hs746t (Gastric) (MTT), 8.18; in [9] (read-out: IC50 (Molar) Lymphoma (Burkitts ascites) P3HR1), 7.25. For the same compound, the pIC50 in the series with SK-OV-3 (Ovary) (read-out: IC50 (Molar) Ovary SK-OV-3) is 6.79; in [5] (MTT), 8.05; in the series with A549 (NSCL) it was 3.92; in the series with HT-29 (Colon) (MTT), 7.09; with PANC-1 (Pancreas) (read-out: IC50 (Molar) Pancreas PANC-1), 9.82; in series [10], 6.84. The pIC50 in the series with 786-O (Renal) (read-out: IC50 (Molar) Renal 786-O) is 6.54; in the series with SK-HEP-1 (Liver) (MTT), 7.04; in series [11] (read-out: IC50 (Molar) Lymphoma (Histiocytic) U-937), 6.73. The toxicity entry in series [8] was “toxic at doses near those required for therapeutic applications”.

`CC[C@H](C)[C@H]1NC(=O)[C@@H](NC(=O)[C@@H](CC(C)C)N(C)C(=O)[C@@H]2CCCN2C(=O)C(C)=O)[C@@H](C)OC(=O)[C@H](Cc2ccc(OC)cc2)N(C)C(=O)[C@@H]2CCCN2C(=O)[C@H](CC(C)C)NC(=O)[C@@H](C)C(=O)[C@H](C(C)C)OC(=O)C[C@@H]1O` [SAPL1, Aplidine] (Pyruvoyl-P[dNMeL]T[X1]LP[NMeY](Me); ester 3-C): the pIC50 in series [1] (Homo sapiens, MOLT-3, MTT) is 6.23; in the series on 5637 (Bladder) (MTT), 7.44; in the series on CCRF-SB (ALL, B-cell) (Homo sapiens, CCRF-SB) it was 6.33; in [3] (Homo sapiens, K562, MTT), 6.24; in the series with H9 (Lymphoma, T cell) (T-cell), 6.28; in the series with P388 Murine lymphoma it was 9.74. The pIC50 was 7.14 in the series with FADU (Pharynx) (Homo sapiens, FaDu, MTT); 5.83 with SW 694 (Fibrosarcoma); 9.35 in the series with MEL-28 human melanoma; 7.35 in series [7] (Homo sapiens, HuT78, read-out: IC50 (Molar) Lymphoma (Cutaneous T cell) Hut 78); 6.78 in the series on MX-1 (Breast); 9.35 in series [4]. Besides, the pIC50 in the series on Hs746t (Gastric) (Homo sapiens, Hs746T, MTT) is 7.60; in series [9] (Homo sapiens, P3HR-1, read-out: IC50 (Molar) Lymphoma (Burkitts ascites) P3HR1), 7.27; in the series on SK-OV-3 (Ovary) (Homo sapiens, SK-OV-3, read-out: IC50 (Molar) Ovary SK-OV-3), 7.14; in series [5] (Homo sapiens, MC116, MTT), 6.04; in the series on A549 (NSCL) (Homo sapiens, A549) it was 4.62; in the series on HT-29 (Colon) (Homo sapiens, HT-29, MTT), 6.16. The pIC50 in the series on PANC-1 (Pancreas) (Homo sapiens, PANC-1, read-out: IC50 (Molar) Pancreas PANC-1) is 6.77; in [10] (Homo sapiens, HL-60), 7.10; in the series on 786-O (Renal) (Homo sapiens, 786-0, read-out: IC50 (Molar) Renal 786-O) it was 7.08; in the series with SK-HEP-1 (Liver) (Homo sapiens, SK-HEP1, MTT) it was 7.03; in series [12] it was 6.75; in series [6], 9.74. In series [11] (Homo sapiens, U-937, read-out: IC50 (Molar) Lymphoma (Histiocytic) U-937), the pIC50 was 6.25.
